According to patent US11584747B2, “Substituted pyridopyrimidinonyl compounds useful as T cell activators” (BRISTOL-MYERS SQUIBB COMPANY, priority 2019, dated 2023):
pEC50, pIC50: −log10 of the molar value. Like-named read-outs stand apart in the source and are kept apart here.

Tests used:
human DGKα [1] = biological target: T1, human DGKα (Homo sapiens (Human), UniProt P23743); test: DGKα LIPGLO assay (extruded liposome substrate, ADP-Glo luminescence); format: biochemical; conditions: liposome assay; read-out: DGK alpha LIPGLO IC50
T1 sequence (P23743 whole entry, looked up): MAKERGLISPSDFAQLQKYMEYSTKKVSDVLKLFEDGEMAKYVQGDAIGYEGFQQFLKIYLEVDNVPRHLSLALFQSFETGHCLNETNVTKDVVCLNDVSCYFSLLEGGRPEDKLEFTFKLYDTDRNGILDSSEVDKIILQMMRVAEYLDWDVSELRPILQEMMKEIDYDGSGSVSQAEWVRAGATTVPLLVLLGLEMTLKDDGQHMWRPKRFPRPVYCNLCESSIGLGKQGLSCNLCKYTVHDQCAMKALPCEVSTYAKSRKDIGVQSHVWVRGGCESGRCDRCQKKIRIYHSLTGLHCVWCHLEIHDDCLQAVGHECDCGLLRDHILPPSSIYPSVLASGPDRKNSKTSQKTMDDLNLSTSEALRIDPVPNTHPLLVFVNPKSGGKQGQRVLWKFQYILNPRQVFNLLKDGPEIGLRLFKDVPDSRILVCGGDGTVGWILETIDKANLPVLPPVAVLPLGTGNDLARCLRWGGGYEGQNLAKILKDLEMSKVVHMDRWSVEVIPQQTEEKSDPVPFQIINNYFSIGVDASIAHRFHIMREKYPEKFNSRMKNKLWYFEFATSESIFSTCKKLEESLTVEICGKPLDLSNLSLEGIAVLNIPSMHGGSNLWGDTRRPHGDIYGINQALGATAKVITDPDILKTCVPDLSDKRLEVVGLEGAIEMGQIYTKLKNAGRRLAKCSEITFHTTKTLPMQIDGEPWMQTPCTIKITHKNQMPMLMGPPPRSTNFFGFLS

human DGKζ = human DGKζ (Homo sapiens (Human), UniProt Q13574); test: DGKζ LIPGLO assay (extruded liposome substrate, ADP-Glo luminescence); format: biochemical
Sequence of human DGKζ (Q13574 other isoform, or with tags, fused parts or gaps): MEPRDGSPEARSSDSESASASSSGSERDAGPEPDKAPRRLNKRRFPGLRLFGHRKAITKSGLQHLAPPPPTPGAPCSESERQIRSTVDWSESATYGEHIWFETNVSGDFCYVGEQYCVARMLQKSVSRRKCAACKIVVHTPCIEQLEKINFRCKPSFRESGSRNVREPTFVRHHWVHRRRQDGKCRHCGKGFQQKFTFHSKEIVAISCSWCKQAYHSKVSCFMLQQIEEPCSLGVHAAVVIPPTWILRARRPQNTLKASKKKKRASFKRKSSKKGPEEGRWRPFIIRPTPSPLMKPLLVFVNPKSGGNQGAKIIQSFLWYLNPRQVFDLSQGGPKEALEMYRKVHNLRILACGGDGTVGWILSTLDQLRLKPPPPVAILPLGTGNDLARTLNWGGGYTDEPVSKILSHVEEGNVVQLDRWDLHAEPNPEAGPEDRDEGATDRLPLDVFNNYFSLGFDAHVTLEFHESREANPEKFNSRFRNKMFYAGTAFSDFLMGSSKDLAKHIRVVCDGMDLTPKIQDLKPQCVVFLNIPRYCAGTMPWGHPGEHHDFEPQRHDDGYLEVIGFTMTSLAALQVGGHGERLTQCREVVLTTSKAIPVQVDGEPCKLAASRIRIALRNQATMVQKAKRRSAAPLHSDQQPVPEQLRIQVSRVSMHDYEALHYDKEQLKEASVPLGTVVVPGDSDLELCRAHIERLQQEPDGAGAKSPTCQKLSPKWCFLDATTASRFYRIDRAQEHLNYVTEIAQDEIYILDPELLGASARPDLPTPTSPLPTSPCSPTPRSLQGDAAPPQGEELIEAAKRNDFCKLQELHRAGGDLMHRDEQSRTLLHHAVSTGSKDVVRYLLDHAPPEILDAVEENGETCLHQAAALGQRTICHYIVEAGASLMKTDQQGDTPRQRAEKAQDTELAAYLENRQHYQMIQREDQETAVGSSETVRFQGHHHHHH

human DGKα [2] = biological target: T1, human DGKα; test: DGKα ADPGLO assay (detergent/lipid micelle substrate); format: biochemical
Protocol: DGK Alpha ADPGLO (Truncated) IC50 (uM)
The detergent/lipid micelle was prepared by combining 15 g phosphatidylserine (Avanti 840035P) and 1 g diacylglycerol (8008110) and dissolving into 150 mL chloroform in a 2 L round bottom flask. Chloroform was removed under high vacuum by rotary evaporation. […] The lipid/detergent solution was split into 5 mL aliquots and stored at −80° C.

[3] = tested on: human venous whole blood (IFN-γ); test: Human whole blood IFN-γ assay; format: cell-based
Protocol: Human venous whole blood (22.5 μL per well), obtained from healthy donors, was pre-treated with compounds for one hour at 37° C. in a humidified 95% air/5% CO2 incubator. The blood was stimulated with 2.5 μL anti-human CD3 and anti-CD28 mAb at a final concentration of 1 μg/mL each for 24 hours at 37° C. IFN-γ in the supernatants was measured using AlphLISA kit (Cat #AL217).

[4] = liposome assay, read-out: DGK zeta LIPGLO IC50
[5] = truncated DGK alpha, read-out: DGK alpha ADPGLO (Truncated) IC50
[6] = whole blood, normalized to 3 μM reference compound as 100% activation, read-out: IFN-γ Whole Blood Normalized EC50

SMILES	pIC50 (human DGKζ; [4])	pIC50 (human DGKα [2]; [5])	pEC50 [3, 6]	other results
CCC(c1ccc(OC(F)F)cc1)N1C[C@H](C)N(c2nc(=O)n(C)c3ccc(C#N)nc23)C[C@H]1CC (single isomer, unassigned) [Example 77]	7.85	–	–	pIC50 (human DGKα [1]): 7.44
CC(c1cc(F)c(F)c(F)c1)N1C[C@H](C)N(c2nc(=O)n(C)c3ccc(C#N)nc23)C[C@H]1C (single isomer, unassigned) [Example 138]	–	–	–	pIC50 (human DGKα [1]): 5.62
CC[C@H]1CN(C(c2ccc(F)cc2)c2cccc(C(F)(F)F)n2)[C@H](C)CN1c1nc(=O)n(C)c2ccc(C#N)nc12 (stereo partly drawn) [Example 120, 4-((2S,5R)-2-ethyl-4-((4-fluorophenyl)(6-(trifluoromethyl)pyridin-2-yl)methyl)-5-methylpiperazin-1-yl)-1-methyl-2-oxo-1,2-dihydropyrido[3,2-d]pyrimidine-6-carbonitrile]	6.13	–	–	pIC50 (human DGKα [1]): 5.77
CC[C@H]1CN(C(C)c2ccc(C(F)(F)F)cc2F)[C@H](C)CN1c1nc(=O)n(C)c2ccc(C#N)nc12 (stereo partly drawn) [Example 119, 4-((2S,5R)-2-ethyl-4-(1-(2-fluoro-4-(trifluoromethyl)phenyl)ethyl)-5-methylpiperazin-1-yl)-1-methyl-2-oxo-1,2-dihydropyrido[3,2-d]pyrimidine-6-carbonitrile]	6.14	–	–	pIC50 (human DGKα [1]): 6.19
CC[C@H]1CN(C(C)c2cnc(C(F)(F)F)nc2)[C@H](CC)CN1c1nc(=O)n(C)c2ccc(C#N)nc12 (stereo partly drawn) [Example 226, 4-((2S,5R)-2,5-diethyl-4-(1-(2-(trifluoromethyl)pyrimidin-5-yl)ethyl)piperazin-1-yl)-1-methyl-2-oxo-1,2-dihydropyrido[3,2-d]pyrimidine-6-carbonitrile]	5.58	5.92	5.25	–
CCC(c1ccc(OC)cc1)N1C[C@H](CC)N(c2nc(=O)n(C)c3ccc(C#N)nc23)C[C@H]1CC (stereo partly drawn) [Example 212, 4-((2S,5R)-2,5-diethyl-4-(1-(4-methoxyphenyl)propyl)piperazin-1-yl)-1-methyl-2-oxo-1,2-dihydropyrido[3,2-d]pyrimidine-6-carbonitrile]	7.15	7.74	7.66	–
CC[C@@H]1CN(c2nc(=O)n(C)c3ccc(C#N)nc23)[C@@H](C)CN1C(C)c1ccc2oc(=O)n(C)c2c1 (stereo partly drawn) [Example 298, 4-((2S,5R)-5-ethyl-2-methyl-4-(1-(3-methyl-2-oxo-2,3-dihydrobenzo[d]oxazol-5-yl)ethyl)piperazin-1-yl)-1-methyl-2-oxo-1,2-dihydropyrido[3,2-d]pyrimidine-6-carbonitrile]	6.42	6.32	6.38	–
CC[C@H]1CN(C(C)c2ccc(CN3CCOC(C)(C)C3)cc2)[C@H](CC)CN1c1nc(=O)n(C)c2ccc(C#N)nc12 (stereo partly drawn) [Example 276, 4-((2S,5R)-4-(1-(4-((2,2-dimethylmorpholino)methyl)phenyl)ethyl)-2,5-diethylpiperazin-1-yl)-1-methyl-2-oxo-1,2-dihydropyrido[3,2-d]pyrimidine-6-carbonitrile]	5.86	6.92	5.45	–
CC[C@H]1CN(C(C)c2ccc(C)nc2)[C@H](CC)CN1c1nc(=O)n(C)c2ccc(C#N)nc12 (stereo partly drawn) [Example 228, 4-((2S,5R)-2,5-diethyl-4-(1-(6-methylpyridin-3-yl)ethyl)piperazin-1-yl)-1-methyl-2-oxo-1,2-dihydropyrido[3,2-d]pyrimidine-6-carbonitrile]	6.52	6.72	6.22	–
CCC(c1ccc(OCC2CC2)cc1F)N1C[C@H](CC)N(c2nc(=O)n(C)c3ccc(C#N)nc23)C[C@H]1CC (stereo partly drawn) [Example 198, 4-((2S,5R)-4-(1-(4-(cyclopropylmethoxy)-2-fluorophenyl)propyl)-2,5-diethylpiperazin-1-yl)-1-methyl-2-oxo-1,2-dihydropyrido[3,2-d]pyrimidine-6-carbonitrile]	7.42	7.43	7.82	–
CC(c1ccc(CN2C[C@@H]3C[C@H]2CO3)cc1)N1C[C@H](C)N(c2nc(=O)n(C)c3ccc(C#N)nc23)C[C@H]1C (stereo partly drawn) [Example 388, 4-((2S,5R)-4-(1-(4-(((1S,4S)-2-oxa-5-azabicyclo[2.2.1]heptan-5-yl)methyl)phenyl)ethyl)-2,5-dimethylpiperazin-1-yl)-1-methyl-2-oxo-1,2-dihydropyrido[3,2-d]pyrimidine-6-carbonitrile]	–	–	–	pIC50 (human DGKζ; liposome (LIPGLO) assay, read-out: DGK zeta (liposome assay) IC50): 4.34; pIC50 (human DGKα [2]; ADPGLO assay, read-out: DGK alpha ADPGLO IC50): 5.76; pEC50 ([3]; human whole blood, anti-CD3 plus anti-CD28 stimulation, 24 hours, read-out: IFN-γ Whole Blood EC50): 4.70
CC[C@H]1CN(C(c2ccc(F)cc2)c2csc(C(F)(F)F)n2)[C@H](CC)CN1c1nc(=O)n(C)c2ccc(C#N)nc12 (stereo partly drawn) [Example 210, 4-((2S,5R)-2,5-diethyl-4((4-fluorophenyl)(2-(trifluoromethyl)thiazol-4-yl)methyl)piperazin-1-yl)-1-methyl-2-oxo-1,2-dihydropyrido[3,2-d]pyrimidine-6-carbonitrile]	6.01	7.34	–	pEC50 ([3]; Homo sapiens, whole blood, normalized to 3 μM reference compound as 100% activation, read-out: IFN-γ Whole Blood Normalized EC50): 7.51
[2H]C([2H])([2H])Oc1ccc(C(C)N2C[C@H](CC)N(c3nc(=O)n(C)c4ccc(C#N)nc34)C[C@H]2CC)cc1 (single isomer, unassigned) [Example 191]	6.59	6.34	6.54	–
CC[C@H]1CN(C(C)c2ccc(N3CCCC3=O)cc2)[C@H](CC)CN1c1nc(=O)n(C)c2ccc(C#N)nc12 (stereo partly drawn) [Example 230, 4-((2S,5R)-2,5-diethyl-4-(1-(4-(2-oxopyrrolidin-1-yl)phenyl)ethyl)piperazin-1-yl)-1-methyl-2-oxo-1,2-dihydropyrido[3,2-d]pyrimidine-6-carbonitrile]	6.89	7.38	5.89	–
CC[C@H]1CN(C(C)c2ccc3oc(=O)n(C)c3c2)[C@H](CC)CN1c1nc(=O)n(C)c2ccc(C#N)nc12 (stereo partly drawn) [Example 203, 4-((2S,5R)-2,5-diethyl-4-(1-(3-methyl-2-oxo-2,3-dihydrobenzo[d]oxazol-5-yl)ethyl)piperazin-1-yl)-1-methyl-2-oxo-1,2-dihydropyrido[3,2-d]pyrimidine-6-carbonitrile]	5.57	6.11	5.66	–
[2H]C([2H])([2H])Oc1ccc(C(CC)N2C[C@H](CC)N(c3nc(=O)n(C)c4ccc(C#N)nc34)C[C@H]2CC)cc1 (single isomer, unassigned) [Example 209]	5.99	7.04	5.89	–
CCC(c1ccc(CN2CCOCC2)cc1)N1C[C@H](CC)N(c2nc(=O)n(C)c3ccc(C#N)nc23)C[C@H]1CC (stereo partly drawn) [Example 268, 4-((2S,5R)-2,5-diethyl-4-(1-(4-(morpholinomethyl)phenyl)propyl)piperazin-1-yl)-1-methyl-2-oxo-1,2-dihydropyrido[3,2-d]pyrimidine-6-carbonitrile]	5.39	6.47	6.00	–
CCC(c1ccc(OCC2CC2)cc1)N1C[C@H](CC)N(c2nc(=O)n(C)c3ccc(C#N)nc23)C[C@H]1CC (stereo partly drawn) [Example 216, 4-((2S,5R)-4-(1-(4-(cyclopropylmethoxy)phenyl)propyl)-2,5-diethylpiperazin-1-yl)-1-methyl-2-oxo-1,2-dihydropyrido[3,2-d]pyrimidine-6-carbonitrile]	7.06	7.06	7.92	–
